Source: PubChem BioAssay AID330 (DTP/NCI, 2004)
“And” between values parts separate entries of the source, which are not always exact repeats. Equal values may be shown once. Inconclusive results and toxic doses are left out.

Tested on: P388 leukemia ip, CD2F1 mice, survival T/C
Test: NCI In Vivo Anticancer Drug Screen. Data for tumor model P388 Leukemia (intraperitoneal) in CD2F1 (CDF1) mice
Conditions: endpoint: median survival time, higher = longer survival
Method in brief: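 Mice carrying the transplanted tumor received test compound or vehicle. Survival was recorded in each group, and the value is the treated-group measurement divided by that of the vehicle-treated control group.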

[1] = dose: 60.0 mg/kg/injection, schedule: Q01DX005 (ip), vehicle: saline with Tween-80
[2] = dose: 120.0 mg/kg/injection, schedule: Q01DX005 (ip), vehicle: saline with Tween-80
[3] = dose: 100.0 mg/kg/injection, schedule: Q01DX009 (ip), vehicle: saline with Tween-80
[4] = dose: 240.0 mg/kg/injection, schedule: Q01DX005 (ip), vehicle: saline with Tween-80
[5] = dose: 50.0 mg/kg/injection, schedule: Q01DX009 (ip), vehicle: saline with Tween-80

With `CCCCS(=O)(=O)CCC(N)C(=O)O` (stereo not drawn) the T/C [1] was 94 % of control and the T/C [2] was 90 % of control.
With `O=C1C(=O)N(c2ccccc2)C(=O)N1c1ccccc1` the T/C (dose: 6.25 mg/kg/injection, schedule: Q01DX009 (ip), vehicle: saline with Tween-80) was 96 % of control, the T/C (dose: 12.5 mg/kg/injection, schedule: Q01DX009 (ip), vehicle: saline with Tween-80) was 105 % of control and the T/C (dose: 25.0 mg/kg/injection, schedule: Q01DX009 (ip), vehicle: saline with Tween-80) was 104 % of control and 89 % of control. For the same compound, the T/C [3] was 101 % of control and 86 % of control.
For `CC(C)(C)S.[Ge]`, the T/C (dose: 7.5 mg/kg/injection, schedule: Q01DX009 (ip), vehicle: saline with Tween-80) was 106 % of control, the T/C (dose: 15.0 mg/kg/injection, schedule: Q01DX009 (ip), vehicle: saline with Tween-80) was 107 % of control and the T/C (dose: 30.0 mg/kg/injection, schedule: Q01DX009 (ip), vehicle: saline with Tween-80) was 103 % of control.
For `COC(=O)c1c(-c2ccccc2)c(-c2ccccc2)[nH]c(=O)c1C#N`, the T/C [1] was 108 % of control, the T/C [2] was 100 % of control and the T/C [4] was 91 % of control.
`CC1CCC(C(C)C)C(OC(=O)c2cccc[n+]2C)C1` (stereo not drawn) was tested, and the T/C (dose: 3.75 mg/kg/injection, schedule: Q01DX005 (ip), vehicle: saline) was 107 % of control, the T/C (dose: 7.5 mg/kg/injection, schedule: Q01DX005 (ip), vehicle: saline) was 103 % of control and the T/C (dose: 15.0 mg/kg/injection, schedule: Q01DX005 (ip), vehicle: saline) was 110 % of control. The T/C (dose: 30.0 mg/kg/injection, schedule: Q01DX005 (ip), vehicle: saline) was 104 % of control and 119 % of control.
With `COC(=O)C1=CO[C@@H](OC2OC(CO)C(O)C(O)C2O)[C@@H]2[C@H](C)[C@@H](O)[C@@H](O)[C@]12O` (stereo partly drawn) the T/C (dose: 25.0 mg/kg/injection, schedule: Q01DX005 (ip), vehicle: saline) was 115 % of control, the T/C (dose: 50.0 mg/kg/injection, schedule: Q01DX005 (ip), vehicle: saline) was 100 % of control and the T/C (dose: 100.0 mg/kg/injection, schedule: Q01DX005 (ip), vehicle: saline) was 106 % of control. The T/C (dose: 200.0 mg/kg/injection, schedule: Q01DX005 (ip), vehicle: saline) was 106 % of control.
In the case of `COCc1ccc2c(c1)C(O)NC(=O)O2` (stereo not drawn), the T/C (dose: 50.0 mg/kg/injection, schedule: Q01DX005 (ip), vehicle: saline with Tween-80) is reported as 102 % of control, the T/C (dose: 100.0 mg/kg/injection, schedule: Q01DX005 (ip), vehicle: saline with Tween-80) is reported as 107 % of control and the T/C (dose: 200.0 mg/kg/injection, schedule: Q01DX005 (ip), vehicle: saline with Tween-80) is reported as 109 % of control. For the same compound, the T/C (dose: 400.0 mg/kg/injection, schedule: Q01DX005 (ip), vehicle: saline with Tween-80) was 117 % of control.
With `Cc1ccc(C(=O)CC2=NC3NN(c4ccccc4)C(=O)C3=C2CC(=O)c2ccc(C)cc2)cc1` (stereo not drawn) the T/C (dose: 60.0 mg/kg/injection, schedule: Q01DX005 (ip), vehicle: suspension in saline) was 94 % of control, the T/C (dose: 120.0 mg/kg/injection, schedule: Q01DX005 (ip), vehicle: suspension in saline) was 98 % of control and the T/C (dose: 240.0 mg/kg/injection, schedule: Q01DX005 (ip), vehicle: suspension in saline) was 102 % of control.
With `O=C(O)/C=C/c1c[nH]c(=O)[nH]c1=O` the T/C [1] was 107 % of control, the T/C [2] was 100 % of control and the T/C [4] was 89 % of control.
With `O=NN(CCCl)C(=O)Nc1cc(Cl)ccc1O` the T/C [5] was 150 % of control and the T/C (dose: 50.0 mg/kg/injection, schedule: Q04DX003 (ip), vehicle: saline with Tween-80) was 122 % of control.
In the case of `CC(=O)CC(=O)CCCCCCCCCCCC(=O)O`, the T/C [5] is reported as 94 % of control, the T/C [3] is reported as 98 % of control and the T/C (dose: 200.0 mg/kg/injection, schedule: Q01DX009 (ip), vehicle: saline with Tween-80) is reported as 103 % of control.
In the case of `c1ccc2nc3ccccc3nc2c1`, the T/C (dose: 25.0 mg/kg/injection, schedule: Q01DX005 (ip), vehicle: Klucel (hydroxypropylcellulose) (HPC)) is reported as 109 % of control, the T/C (dose: 50.0 mg/kg/injection, schedule: Q01DX005 (ip), vehicle: Klucel (hydroxypropylcellulose) (HPC)) is reported as 104 % of control and the T/C (dose: 100.0 mg/kg/injection, schedule: Q01DX005 (ip), vehicle: Klucel (hydroxypropylcellulose) (HPC)) is reported as 104 % of control. The T/C (dose: 200.0 mg/kg/injection, schedule: Q01DX005 (ip), vehicle: Klucel (hydroxypropylcellulose) (HPC)) was 104 % of control.
In the case of `C/C=C/c1cc(OC)c2c(c1)[C@H](C)C(c1ccc3c(c1)OCO3)O2` (stereo partly drawn), the T/C (dose: 37.5 mg/kg/injection, schedule: Q01DX005 (ip), vehicle: Klucel (hydroxypropylcellulose) (HPC)) is reported as 97 % of control, the T/C (dose: 75.0 mg/kg/injection, schedule: Q01DX005 (ip), vehicle: Klucel (hydroxypropylcellulose) (HPC)) is reported as 86 % of control and the T/C (dose: 150.0 mg/kg/injection, schedule: Q01DX005 (ip), vehicle: Klucel (hydroxypropylcellulose) (HPC)) is reported as 88 % of control. For the same compound, the T/C (dose: 300.0 mg/kg/injection, schedule: Q01DX005 (ip), vehicle: Klucel (hydroxypropylcellulose) (HPC)) was 91 % of control.
